Assays:
[1] = tested on: integrin (THP-1 cell adhesion); assay: Number of adhered cells after phorbol ester (PMA) stimulation, function of integrin; assay type: cell-based, human; details: THP-1, 12.3 mM, one hour
Procedure: A 1,5-D-anhydrofructose solution (prepared by dissolving 1,5-D-anhydrofructose in DMSO) was added to the THP-1 cell culture medium, and the resulting medium was then stimulated by phorbol ester (PMA; phorbol myristate acetate). After the medium was cultured at 37° C. and a CO2 concentration of 5% for one hour, adhered cells were stained with a Giemsa staining method.
It is known that when leukemia cell lines are stimulated by phorbol ester (PMA), activation of adhesion molecule integrin is observed, and as a result, production of active oxygen, enhancement of cell adhesion and cell infiltration are induced as cell phenomena. Thus, THP-1 cell lines were cultured in the presence of 1,5-D-anhydrofructose, and the function of integrin was evaluated by use of the number of adherent cells after stimulation of the lines by phorbol ester as an index.

[2] = tested on: B16 melanoma cells in C57 BL/6 mice; assay: Cancerous peritonitis model, survival of mice with B16 melanoma cells in the abdominal cavity; assay type: in vivo, mouse
Procedure: B16 melanoma cells (5×10^6 cells) were disseminated in the abdominal cavities of C57 BL/6 mice, PBS (phosphate buffer) and an ascopyrone P solution were then administered (dosage: 200 mg/kg) into the abdominal cavities every day from the 15th day, and the survival rates were examined (cancerous peritonitis model). It was confirmed that, in this experimental system, when the B16 melanoma cells were disseminated in the abdominal cavities of the mice in advance, the mice died from the 14th day or later when nothing or PBS was applied. The results of examining the life extending effect of ascopyrone P on terminal cancer models by use of the present experimental system are shown in FIG. 8. […] This indicates the antitumor effect in vivo of ascopyrone P.
As in Example 1, B16 melanoma cells (5×10^6 cells) were disseminated in the abdominal cavities of C57 BL/6 mice, and PBS and 1,5-D-anhydrofructose were administered (dosage: 200 mg/kg) into the abdominal cavities every day from the 2nd day. The average survival days after the tumor cells were disseminated were 19 days for those given 1,5-D-anhydrofructose and 14 days for those given PBS as controls.

[3] = tested on: A549 (human alveolar cell carcinoma); assay: Percentage of dead cells by PI staining/FACS; DNA fragmentation; assay type: cell-based
Procedure: (§1) Adhesion cancer cell lines C57 BL/6 mouse melanoma cell lines (B16 melanoma), human lung adenocarcinoma cell lines (A549), human keratinocyte derived tumor-like cell lines (HaCaT) and human cervical cancer cell lines (Hela) were cultured at 37° C. and a CO2 concentration of 5% in DMEM media having 10% FCS (fetal calf serum) and 2% penicillin/streptomycin added thereto. Floating tumor cells THP-1 (promyelocytic leukemia cell lines) were cultured at 37° C. and a CO2 concentration of 5% in an RPMI 1640 medium containing 10% FCS and 2% penicillin/streptomycin.
(§2) The cell culture media were stimulated by ascopyrone P solutions (prepared by dissolving ascopyrone P in dimethyl sulfoxide (DMSO)) of various concentrations and cultured for a predetermined time. Thereafter, cells were collected in a floating state by use of trypsin. Then, the cells were fixed by 70% ethanol at 4° C. for 30 minutes and then stained with a 50 μg/ml propidium iodine (PI) solution. […]
(§3) In the examination, in addition to the B16 melanoma cells, 4 types of human cancer cell lines (THP-1: promyelocytic leukemia, HeLa: cervical cancer, A549: alveolar cell carcinoma, HaCaT: cutaneous cancer model cells) were examined for the proportion of dead cells induced by stimulation of ascopyrone P. To the cancer cell culture solutions, ascopyrone P was added to 1.4 mM, and the percentages of dead cells after 48 hours were determined.

[4] = tested on: HaCaT (human keratinocyte derived tumor-like cells); assay: Percentage of dead cells by PI staining/FACS; DNA fragmentation; FCS 10% vs FCS 1%; assay type: cell-based; details: 1.4 mM
Procedure: as §1
(§4) The cell culture media were stimulated by ascopyrone P solutions (prepared by dissolving ascopyrone P in dimethyl sulfoxide (DMSO)) of various concentrations and cultured for a predetermined time. Thereafter, cells were collected in a floating state by use of trypsin. Then, the cells were fixed by 70% ethanol at 4° C. for 30 minutes and then stained with a 50 μg/ml propidium iodine (PI) solution. After 30 minutes, DNA histograms were prepared by use of an FACS to examine cell death percentages and cell cycles.
as §3
It is known that although HaCaT cells have characteristics of tumor cells in the presence of 10% FCS, they have characteristics close to those of normal cells in the presence of low-concentration FCS (1% or lower). By taking advantage of this characteristic, the influence of ascopyrone P on normal cells was examined.

[5] = tested on: B16 melanoma cells in C57 BL/6 mice; assay: Subcutaneous B16 melanoma tumor volume and metastasis; assay type: in vivo, mouse; details: 25 mg/kg subcutaneously into tumor spots every other day, 3rd to 13th day
Procedure: Next, B16 melanoma cells (1×10^5 cells) were subcutaneously disseminated in the backs of C57 BL/6 mice, PBS and ascopyrone P were subcutaneously injected into tumor spots (using a solution of ascopyrone P dissolved in PBS in a dosage of 25 mg/kg) every other day from the 3rd day to the 13th day, and the antitumor effects were evaluated based on the volumes (long diameter×short diameter^2×0.52) of the tumors (FIG. 10). […] In general, it is said in clinical practice that an antitumor medicine with a lower tumor growing rate provides better prognosis.

[6] = tested on: HeLa (human cervical cancer cells); assay: Percentage of dead cells and cell cycle by PI staining/FACS; assay type: cell-based; details: 1.4 mM
Procedure: as §1, §4, §3
Therefore, when ascopyrone P is given to a living body as an antitumor medicine, it is expected that it specifically exerts a cell killing effect only on tumor cells without affecting normal cells most of which are conceived in the G0/1 period of the cell cycle.

[7] = tested on: THP-1 (promyelocytic leukemia cells); assay: Percentage of dead cells by PI staining/FACS; assay type: cell-based, human
Procedure: as §1, §2, §3

[8] = tested on: B16 melanoma (C57 BL/6 mouse melanoma cells); assay: Percentage of dead cells by PI staining/FACS; assay type: cell-based; details: 1.4 mM, after 48 hours
Procedure: as §1, §2, §3

B16 melanoma cells = assay: Cell growth inhibition, number of living cells by crystal violet staining; assay type: cell-based, mouse; details: 0.70 mM final concentration, one week culture
Procedure: After B16 melanoma cells having multiplied on a 6-well plate were fixed by 2% glutaraldehyde, they were stained with 4% crystal violet, and stainable cells were determined to be living cells.
5×10^3 cells/ml of B16 melanoma cells (C57 BL/6 mouse melanoma cells) were disseminated into a 6-well plate. After the cells were attached to the bottom face (24 hours), an ascopyrone P solution (using DMSO as a solvent) was added in equal amounts to achieve a final concentration of 0 to 0.70 mM in the culture solutions. After the cells were cultured at 37° C. and a CO2 concentration of 5% for one week, the number of living cells was counted.

O=C1CO[C@H](CO)[C@@H](O)[C@@H]1O [1,5-D-anhydrofructose]
cell adhesion by phorbol ester (remaining) [1]: about 25% | average survival days after the tumor cells were disseminated ([2]; 200 mg/kg into the abdominal cavity every day from the 2nd day, PBS controls 14 days): 19 days

O=C1CC(CO)OC=C1O (stereo not drawn) [ascopyrone P, 2-hydroxymethyl-5-hydroxy-2,3-dihydro-4H-pyran-4-one]
Percentage of Dead Cells (%) ([3]; A549, 1.4 mM, after 48 hours): 48.6 ± 3.8% | apoptosis-specific DNA fragmentation ([3]; A549 cells): the same result was also obtained | apoptosis-specific DNA fragmentation ([4]; 48 hours, agarose gel electrophoresis): apoptosis-specific DNA fragmentation was observed | Percentage of Dead Cells (%) ([4]; after 48 hours): 27.2 ± 3.1% | cell death ([4]; FCS 1% (normal-cell-like)): almost no cell death was observed | cell death ([4]; FCS 10% (tumor-like growth), within 48 hours): about 30% | metastasis of tumors at dissection [5]: hardly observed | tumor volume versus PBS ([5]; from the 7th day and later): significantly smaller tumor volume | tumor volume versus PBS ([5]; until the 7th day): no difference | Percentage of Dead Cells (%) ([6]; after 48 hours): 8.3 ± 2.0% | G2/M period cell population ([6]; FCS 10%, 24 hours): significant decrease | S-period cell population ([6]; FCS 10%, 24 hours): significant increase | cell death ([6]; FCS 10%, 48 hours): about 10% | cell death ([7]; THP-1, 0.35 mM, within 48 hours): induced cell death | Percentage of Dead Cells (%) ([7]; THP-1, 1.4 mM, after 48 hours): 33.3 ± 0.7% | Percentage of Dead Cells (%) [8]: 31.9 ± 3.6% | number of living cells (control DMSO = 100%) (B16 melanoma cells): ≤ 50% | proportion of mice with 3 times or longer life time expansion than controls (PBS) ([2]; 200 mg/kg into the abdominal cavity every day from the 15th day): 40% | average survival days ([2]; 200 mg/kg into the abdominal cavity every day from the 15th day, PBS controls 4 days): 8 days
